# Test results published in patent US9260382B2, “Methods of reducing virulence in bacteria” (priority 2010, dated 2016).
# “And” between values parts separate entries of the source, which are not always exact repeats. Equal entries are not always repeated.
# What was measured:
# [1] = system: hrpA promoter (T3SS); experiment: GFP reporter plasmid phrpA, flow cytometry (FACS) of hrpA promoter activity; type: cell-based, Dickeya dadantii 3937; details: for change of average GFP fluorescence intensity of Ech3937 (phrpA) vs MM alone, in words: 0.1 mM; for GFP Mean Fluorescence Intensity, hrpA promoter: MM + 0.1 mM compound
# In short: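 D. dadantii (Ech) 3937 carrying the phrpA promoter–GFP transcriptional fusion was grown in T3SS minimal medium with 100 μM compound, starting from an inoculum of OD600 1.0. GFP was read by flow cytometry at 12 and 24 h. Values are mean fluorescence intensity of three replicates ± SD, with compound-free MM as control.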
# [2] = system: hrpA promoter (T3SS); experiment: hrpA promoter-probe phrpA in Erwinia amylovora 273, flow cytometry; type: cell-based; details: Ea273 (phrpA), HIM + 100 μM compound
# In short: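 Erwinia amylovora 273 carrying an hrpA promoter–GFP fusion (pPROBE-NT) was grown in hrp-inducing medium with 100 μM compound or DMSO. Promoter activity read as GFP intensity by flow cytometry at 6 h and 9 h.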
# [3] = system: pPROBE-AT vector without promoter insert; experiment: pPROBE-AT vector control, flow cytometry; type: cell-based, Dickeya dadantii 3937; details: for mean fluorescence intensity of GFP, vector control: 3937 (pPROBE-AT), MM + 100 μM; for GFP Mean Fluorescence Intensity, vector control: Ech3937 (pPROBE-AT), MM + 0.1 mM compound
# Procedure: (§1) FACS analysis of promoter activity of dspE, hrpA, hrpL, hrpN, and hrpS was carried out as described (Peng et al., 2006). Briefly, the wild-type Ech3937 and the mutant strains carrying the promoter reporter plasmid were grown on LB broth at 28° C. overnight and transferred to appropriate media. For FACS analysis, samples were collected by centrifugation, washed with 1× phosphate buffer saline (PBS) at 13,000 rpm for 1 min, and re-suspended in 1×PBS to ca 10^6 CFU/ml prior to being run in a FACS Calibur flow cytometer (BD Biosciences, CA). Three replicates were performed for each treatment.
# [4] = system: hrpN promoter (T3SS); experiment: GFP reporter plasmid phrpN, flow cytometry of hrpN promoter activity; type: cell-based, Dickeya dadantii 3937; details: for mean fluorescence intensity of GFP, hrpN promoter: 3937 (phrpN), MM + 100 μM; for hrpN expression in Ech3937 and hrpX, hrpY, hrpS mutants, in words: 0.1 mM, 12 h (FIG. 5); for GFP Mean Fluorescence Intensity, hrpN promoter: MM + 0.1 mM compound
# Procedure: as §1
# Phenolic compounds constitute an important class of organic substances produced by plants. The phenolic compound SA is a signaling molecule that plays a role in host defenses. OCA and TCA are the biosynthetic precursors of SA and are also reported to induce the expression of defense-related genes in plants. OCA, TCA, and SA were examined to elucidate their effects on the expression of T3SS genes. The expression of the T3SS gene hrpN was examined in MM and MM supplemented with OCA, TCA, and SA, at concentrations of 0.05, 0.1, and 0.2 mM, respectively. FIGS. 2A and 2B show the promoter activities of hrpN in Dickeya dadantii 3937 (Ech3937) grown in MM and MM supplemented with 0.05, 0.1, and 0.2 mM OCA, TCA, and SA at 12 h (FIG. 2A) and 24 h (FIG. 2B) post-inoculation. GFP intensity was determined on gated populations of bacterial cells by flow cytometry and analyzed with the Cell Quest software (BD Biosciences, San Jose, Calif.). The growth of Ech3937 in MM supplemented with different concentrations of OCA, TCA and SA was recorded. Compared with MM alone, the average GFP fluorescence intensity of bacterial cells of Ech3937 (phrpN) was increased approximately 4-fold when 0.05 mM of OCA and TCA were added to the medium (FIGS. 2A, 2B).
# [5] = system: rsmB RNA; experiment: qRT-PCR relative mRNA level of rsmB; type: cell-based, Dickeya dadantii 3937; details: Ech3937 in MM supplemented with compound
# Procedure: Bacterial strains were grown in MM. Total RNA from the bacterial cells was isolated by using the TRI reagent method (Sigma, Mo.) and treated with Turbo DNA-free DNase kits (Ambion, Tex.) as described (Peng et al., 2006). An iScript cDNA Synthesis Kit (Bio-Rad, CA) was used to synthesize cDNA from 0.5 μg of treated total RNA. The Real Master Mix (Eppendorf, Westbury, N.Y.) was used for qRT-PCR reaction to quantify the cDNA level of target genes in different samples. The rplU was used as the endogenous control for data analysis. qRT-PCR data were analyzed using Relative Expression Software Tool as described (Pfaffl, M. W., Horgan, G. W., and Dempfle, L. (2002) Relative expression software tool (REST) for group-wise comparison and statistical analysis of relative expression results in real-time PCR. Nucleic Acids Res 30:e36.).
# [6] = hrpL mutant WPP96 (phrpA), 12 h
# [7] = hrpL mutant WPP96 (phrpN), 12 h
smiles,measurement,setting,value
"O=C(/C=C/c1ccc(O)cc1)NO [Compound 103, trans-4-Hydroxycinnamohydroxamic acid]",reduction of hrpA expression,[1]; 10 μM added to the medium,approximately 4 fold
same,"inhibitory activity on T3SS gene (hrpA) expression, in words","[1]; D. dadantii 3937, reporter plasmid phrpA, 100 μM",showed inhibitory effect
same,minimal effective concentration,"[1]; Dickeya dadantii, read-out: minimal inhibitory concentration on hrpA expression (concentration showing inhibitory effect)",10 µM
same,"Mean Fluorescence Intensity of GFP (hrpA, phrpA)","[1]; Trial 1, MM supplemented with compound at 100 μM",9.3 ± 0.3
same,"Avg MFI ± SD, hrpA expression",[2]; 6 h,206.9 ± 3.9
same,"Avg MFI ± SD, hrpA expression",[2]; 9 h,168.2 ± 24.9
same,"mean fluorescence intensity of GFP, vector control",[3]; 12 h,3.0 ± 0.6
same,"mean fluorescence intensity of GFP, vector control",[3]; 24 h,4.3 ± 0.6
same,"mean fluorescence intensity of GFP, hrpN promoter",[4]; 12 h,5.8 ± 0.7
same,"mean fluorescence intensity of GFP, hrpN promoter",[4]; 24 h,5.4 ± 0.3
"O=C(O)/C=C/c1ccccc1O [Compound 006, Ortho-coumaric acid]",rsmB mRNA relative expression ratio (MM alone normalized to 1),[5],1.4
same,"change of average GFP fluorescence intensity of Ech3937 (phrpA) vs MM alone, in words",[1]; 12 h,doubled
same,"GFP Mean Fluorescence Intensity, hrpA promoter","[1]; Ech3937 (phrpA), 12 h, listed as OCA",82 ± 1
same,"GFP Mean Fluorescence Intensity, hrpA promoter","[1]; Ech-Rif (phrpA), 6 h",18 ± 0
same,"GFP Mean Fluorescence Intensity, hrpA promoter","[1]; Ech-Rif (phrpA), 12 h",51 ± 2
same,"GFP Mean Fluorescence Intensity, hrpA promoter","[1]; Ech-Rif (phrpA), 24 h",49 ± 1
same,"GFP Mean Fluorescence Intensity, hrpA promoter","[1]; gacA mutant Ech137 (phrpA), 6 h",4.9 ± 0.1
same,"GFP Mean Fluorescence Intensity, hrpA promoter","[1]; gacA mutant Ech137 (phrpA), 12 h",5.9 ± 0.1
same,"GFP Mean Fluorescence Intensity, hrpA promoter","[1]; gacA mutant Ech137 (phrpA), 24 h",8.3 ± 0
same,"GFP Mean Fluorescence Intensity, hrpA promoter",[1]; [6],6.5 ± 0.2
same,"Avg MFI ± SD, hrpA expression",[2]; 6 h,443 ± 16.9
same,"Avg MFI ± SD, hrpA expression",[2]; 9 h,437.8 ± 21.1
same,"GFP Mean Fluorescence Intensity, vector control",[3]; 6 h,2.0 ± 0
same,"GFP Mean Fluorescence Intensity, vector control",[3]; 12 h,2.0 ± 0
same,"GFP Mean Fluorescence Intensity, vector control",[3]; 24 h,1.9 ± 0
same,"hrpN expression in Ech3937 and hrpX, hrpY, hrpS mutants, in words",[4],"induced the expression of hrpN in Ech3937, but not in hrpX, hrpY, and hrpS mutants"
same,"GFP Mean Fluorescence Intensity, hrpN promoter","[4]; Ech3937 (phrpN), 6 h",31 ± 3
same,"GFP Mean Fluorescence Intensity, hrpN promoter","[4]; Ech3937 (phrpN), 12 h, listed as OCA",94 ± 3 and 91 ± 8
same,"GFP Mean Fluorescence Intensity, hrpN promoter","[4]; Ech3937 (phrpN), 24 h",78 ± 8
same,"GFP Mean Fluorescence Intensity, hrpN promoter",[4]; [7],3.3 ± 0.1
same,"GFP Mean Fluorescence Intensity, hrpN promoter","[4]; iaaM mutant Ech138 (phrpN), 6 h",9.1 ± 1.6
same,"GFP Mean Fluorescence Intensity, hrpN promoter","[4]; iaaM mutant Ech138 (phrpN), 12 h",33 ± 5
same,"GFP Mean Fluorescence Intensity, hrpN promoter","[4]; iaaM mutant Ech138 (phrpN), 24 h",39 ± 5
"O=C(O)/C=C/c1ccccc1 [Compound 001, trans-cinnamic acid]",rsmB mRNA relative expression ratio (MM alone normalized to 1),[5],1.58
same,"change of average GFP fluorescence intensity of Ech3937 (phrpA) vs MM alone, in words",[1]; 12 h,doubled
same,"GFP Mean Fluorescence Intensity, hrpA promoter","[1]; Ech3937 (phrpA), 6 h",22.3 ± 2.1
same,"GFP Mean Fluorescence Intensity, hrpA promoter","[1]; Ech3937 (phrpA), 24 h",203.7 ± 16.1
same,"GFP Mean Fluorescence Intensity, hrpA promoter",[1]; [6],6.2 ± 0.6
same,"Avg MFI ± SD, hrpA expression",[2]; 6 h,471.2 ± 12.6
same,"Avg MFI ± SD, hrpA expression",[2]; 9 h,432.6 ± 17.8
same,"GFP Mean Fluorescence Intensity, vector control",[3]; 12 h,1.9 ± 0
same,increase of average GFP fluorescence intensity of Ech3937 (phrpN) compared with MM alone,"[4]; 0.05 mM compound, 12 h and 24 h (FIGS. 2A, 2B)",approximately 4 fold
same,"hrpN expression in Ech3937 and hrpX, hrpY, hrpS mutants, in words",[4],"induced the expression of hrpN in Ech3937, but not in hrpX, hrpY, and hrpS mutants"
same,"GFP Mean Fluorescence Intensity, hrpN promoter","[4]; Ech3937 (phrpN), 12 h",103 ± 1
same,GFP Intensity of Ech3937 (phrpN),"[4]; MM + 0.2 μM compound, 12 h",65.1 ± 6.8
same,GFP Intensity of Ech3937 (phrpN),"[4]; MM + 0.2 μM compound, 24 h",163 ± 25
same,GFP Intensity of Ech3937 (phrpN),"[4]; MM + 0.5 μM compound, 12 h",73.4 ± 4.2
same,GFP Intensity of Ech3937 (phrpN),"[4]; MM + 0.5 μM compound, 24 h",158 ± 20
same,GFP Intensity of Ech3937 (phrpN),"[4]; MM + 5 μM compound, 12 h",134 ± 5.6
same,GFP Intensity of Ech3937 (phrpN),"[4]; MM + 5 μM compound, 24 h",266 ± 14
same,GFP Intensity of Ech3937 (phrpN),"[4]; MM + 10 μM compound, 12 h",147 ± 18
same,GFP Intensity of Ech3937 (phrpN),"[4]; MM + 10 μM compound, 24 h",284 ± 12
same,"GFP Mean Fluorescence Intensity, hrpN promoter",[4]; [7],3.3 ± 0
